In the supplement of paper PMC8612539:
In brackets after ≈: the same amount, converted by molar mass.

Tests used:
[1] = system: Pasteurella multocida; test: minimum inhibitory concentration (MIC)
Procedure: (§1)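 Broth microdilution MIC (Sensititre BOPO7F bovine plate, CLSI methods) of 19 antimicrobials against field isolates of P. multocida, M. haemolytica, H. somni (deep nasopharyngeal swabs) and E. coli, Enterococcus spp. (rectal swabs) from weaned dairy heifers. Incubation 16-24 h at 35 C. MIC is the lowest concentration preventing visible growth. Values with <= or > lie at the tested range limits. Trimethoprim-sulfamethoxazole is given as the trimethoprim component of a 1:19 mixture.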

[2] = system: Enterococcus spp.; test: minimum inhibitory concentration (MIC)
Procedure: as §1

[3] = isolate (source animal id): 168
[4] = isolate (source animal id): 169
[5] = isolate (source animal id): 171
[6] = isolate (source animal id): 175
[7] = isolate (source animal id): 177
[8] = isolate (source animal id): 182
[9] = isolate (source animal id): 195
[10] = isolate (source animal id): 197
[11] = isolate (source animal id): 223
[12] = isolate (source animal id): 241
[13] = isolate (source animal id): 247
[14] = isolate (source animal id): 250
[15] = isolate (source animal id): 285
[16] = isolate (source animal id): 290
[17] = isolate (source animal id): 296
[18] = isolate (source animal id): 310

CC[C@H]1OC(=O)C[C@@H](O)[C@H](C)[C@@H](O[C@@H]2O[C@H](C)[C@@H](O)[C@H](N(C)C)[C@H]2O)[C@@H](CCN2CCCCC2)C[C@@H](C)C(=O)/C=C/C(C)=C/[C@@H]1CN1CCCCC1 [Tildipirosin]
minimum inhibitory concentration ([1]; isolate (source animal id): 10): > 16 µg/mL
minimum inhibitory concentration ([1]; isolate (source animal id): 11): > 16 µg/mL
minimum inhibitory concentration ([1]; isolate (source animal id): 12): > 16 µg/mL
minimum inhibitory concentration ([1]; isolate (source animal id): 19): > 16 µg/mL
minimum inhibitory concentration ([1]; isolate (source animal id): 23): > 16 µg/mL
minimum inhibitory concentration ([1]; isolate (source animal id): 26): > 16 µg/mL
minimum inhibitory concentration ([1]; isolate (source animal id): 98): > 16 µg/mL
minimum inhibitory concentration ([1]; isolate (source animal id): 104): > 16 µg/mL
minimum inhibitory concentration ([1]; isolate (source animal id): 115): > 16 µg/mL
minimum inhibitory concentration ([1]; isolate (source animal id): 117): > 16 µg/mL
minimum inhibitory concentration ([1]; isolate (source animal id): 118): > 16 µg/mL
minimum inhibitory concentration ([1]; isolate (source animal id): 121): > 16 µg/mL
minimum inhibitory concentration ([1]; isolate (source animal id): 124): > 16 µg/mL
minimum inhibitory concentration ([1]; isolate (source animal id): 125): > 16 µg/mL
minimum inhibitory concentration ([1]; isolate (source animal id): 128): > 16 µg/mL
minimum inhibitory concentration ([1]; isolate (source animal id): 131): > 16 µg/mL
minimum inhibitory concentration ([1]; isolate (source animal id): 135): > 16 µg/mL
minimum inhibitory concentration ([1]; isolate (source animal id): 136): > 16 µg/mL
minimum inhibitory concentration ([1]; isolate (source animal id): 140): > 16 µg/mL
minimum inhibitory concentration ([1]; isolate (source animal id): 144): > 16 µg/mL
minimum inhibitory concentration ([1]; isolate (source animal id): 146): > 16 µg/mL
minimum inhibitory concentration ([1]; isolate (source animal id): 150): > 16 µg/mL
minimum inhibitory concentration ([1]; isolate (source animal id): 151): > 16 µg/mL
minimum inhibitory concentration ([1]; isolate (source animal id): 153): > 16 µg/mL
minimum inhibitory concentration ([1]; isolate (source animal id): 155): > 16 µg/mL
minimum inhibitory concentration ([1]; isolate (source animal id): 157): > 16 µg/mL
minimum inhibitory concentration ([1]; isolate (source animal id): 160): > 16 µg/mL
minimum inhibitory concentration ([1]; isolate (source animal id): 164): > 16 µg/mL
minimum inhibitory concentration ([1]; isolate (source animal id): 165): > 16 µg/mL
minimum inhibitory concentration ([1]; isolate (source animal id): 167): ≤ 1 µg/mL
minimum inhibitory concentration [1, 3]: > 16 µg/mL
minimum inhibitory concentration [1, 4]: ≤ 1 µg/mL
minimum inhibitory concentration ([1]; isolate (source animal id): 170): 2 µg/mL (≈ 2.72 µM)
minimum inhibitory concentration [1, 5]: ≤ 1 µg/mL
minimum inhibitory concentration ([1]; isolate (source animal id): 172): ≤ 1 µg/mL
minimum inhibitory concentration ([1]; isolate (source animal id): 173): > 16 µg/mL
minimum inhibitory concentration ([1]; isolate (source animal id): 174): ≤ 1 µg/mL
minimum inhibitory concentration [1, 6]: ≤ 1 µg/mL
minimum inhibitory concentration ([1]; isolate (source animal id): 176): ≤ 1 µg/mL
minimum inhibitory concentration [1, 7]: ≤ 1 µg/mL
minimum inhibitory concentration ([1]; isolate (source animal id): 178): ≤ 1 µg/mL
minimum inhibitory concentration ([1]; isolate (source animal id): 179): ≤ 1 µg/mL
minimum inhibitory concentration [1, 8]: 2 µg/mL (≈ 2.72 µM)
minimum inhibitory concentration ([1]; isolate (source animal id): 192): ≤ 1 µg/mL
minimum inhibitory concentration ([1]; isolate (source animal id): 193): ≤ 1 µg/mL
minimum inhibitory concentration [1, 9]: ≤ 1 µg/mL
minimum inhibitory concentration ([1]; isolate (source animal id): 196): ≤ 1 µg/mL
minimum inhibitory concentration [1, 10]: 2 µg/mL (≈ 2.72 µM)
minimum inhibitory concentration ([1]; isolate (source animal id): 198): > 16 µg/mL
minimum inhibitory concentration ([1]; isolate (source animal id): 199): ≤ 1 µg/mL
minimum inhibitory concentration ([1]; isolate (source animal id): 200): ≤ 1 µg/mL
minimum inhibitory concentration ([1]; isolate (source animal id): 201): ≤ 1 µg/mL
minimum inhibitory concentration ([1]; isolate (source animal id): 203): ≤ 1 µg/mL
minimum inhibitory concentration ([1]; isolate (source animal id): 204): ≤ 1 µg/mL
minimum inhibitory concentration ([1]; isolate (source animal id): 205): > 16 µg/mL
minimum inhibitory concentration ([1]; isolate (source animal id): 206): ≤ 1 µg/mL
minimum inhibitory concentration ([1]; isolate (source animal id): 207): ≤ 1 µg/mL
minimum inhibitory concentration ([1]; isolate (source animal id): 208): ≤ 1 µg/mL
minimum inhibitory concentration ([1]; isolate (source animal id): 209): ≤ 1 µg/mL
minimum inhibitory concentration ([1]; isolate (source animal id): 210): > 16 µg/mL
minimum inhibitory concentration ([1]; isolate (source animal id): 213): 2 µg/mL (≈ 2.72 µM)
minimum inhibitory concentration ([1]; isolate (source animal id): 216): ≤ 1 µg/mL
minimum inhibitory concentration [1, 11]: > 16 µg/mL
minimum inhibitory concentration ([1]; isolate (source animal id): 227): ≤ 1 µg/mL
minimum inhibitory concentration ([1]; isolate (source animal id): 229): > 16 µg/mL
minimum inhibitory concentration ([1]; isolate (source animal id): 233): > 16 µg/mL
minimum inhibitory concentration ([1]; isolate (source animal id): 234): > 16 µg/mL
minimum inhibitory concentration ([1]; isolate (source animal id): 237): > 16 µg/mL
minimum inhibitory concentration [1, 12]: > 16 µg/mL
minimum inhibitory concentration ([1]; isolate (source animal id): 245): > 16 µg/mL
minimum inhibitory concentration [1, 13]: > 16 µg/mL
minimum inhibitory concentration [1, 14]: > 16 µg/mL
minimum inhibitory concentration ([1]; isolate (source animal id): 254): > 16 µg/mL
minimum inhibitory concentration ([1]; isolate (source animal id): 255): > 16 µg/mL
minimum inhibitory concentration ([1]; isolate (source animal id): 258): ≤ 1 µg/mL
minimum inhibitory concentration ([1]; isolate (source animal id): 261): > 16 µg/mL
minimum inhibitory concentration ([1]; isolate (source animal id): 262): > 16 µg/mL
minimum inhibitory concentration ([1]; isolate (source animal id): 269): ≤ 1 µg/mL
minimum inhibitory concentration ([1]; isolate (source animal id): 270): > 16 µg/mL
minimum inhibitory concentration ([1]; isolate (source animal id): 274): > 16 µg/mL
minimum inhibitory concentration ([1]; isolate (source animal id): 275): > 16 µg/mL
minimum inhibitory concentration ([1]; isolate (source animal id): 276): > 16 µg/mL
minimum inhibitory concentration ([1]; isolate (source animal id): 277): ≤ 1 µg/mL
minimum inhibitory concentration ([1]; isolate (source animal id): 278): > 16 µg/mL
minimum inhibitory concentration ([1]; isolate (source animal id): 279): > 16 µg/mL
minimum inhibitory concentration ([1]; isolate (source animal id): 280): > 16 µg/mL
minimum inhibitory concentration ([1]; isolate (source animal id): 284): > 16 µg/mL
minimum inhibitory concentration [1, 15]: > 16 µg/mL
minimum inhibitory concentration ([1]; isolate (source animal id): 287): > 16 µg/mL
minimum inhibitory concentration [1, 16]: > 16 µg/mL
minimum inhibitory concentration ([1]; isolate (source animal id): 294): > 16 µg/mL
minimum inhibitory concentration ([1]; isolate (source animal id): 295): > 16 µg/mL
minimum inhibitory concentration [1, 17]: > 16 µg/mL
minimum inhibitory concentration ([1]; isolate (source animal id): 307): > 16 µg/mL
minimum inhibitory concentration [1, 18]: > 16 µg/mL
minimum inhibitory concentration ([1]; isolate (source animal id): 311): > 16 µg/mL
minimum inhibitory concentration ([1]; isolate (source animal id): 312): > 16 µg/mL
minimum inhibitory concentration ([1]; isolate (source animal id): 313): > 16 µg/mL
minimum inhibitory concentration ([1]; isolate (source animal id): 315): > 16 µg/mL
minimum inhibitory concentration ([1]; isolate (source animal id): 316): > 16 µg/mL
minimum inhibitory concentration ([2]; isolate (source animal id): 2): 8 µg/mL (≈ 10.9 µM)
minimum inhibitory concentration ([2]; isolate (source animal id): 35): > 16 µg/mL
minimum inhibitory concentration ([2]; isolate (source animal id): 42): 8 µg/mL (≈ 10.9 µM)
minimum inhibitory concentration ([2]; isolate (source animal id): 44): 16 µg/mL (≈ 21.8 µM)
minimum inhibitory concentration ([2]; isolate (source animal id): 79): 16 µg/mL (≈ 21.8 µM)
minimum inhibitory concentration ([2]; isolate (source animal id): 88): 8 µg/mL (≈ 10.9 µM)
minimum inhibitory concentration ([2]; isolate (source animal id): 91): 8 µg/mL (≈ 10.9 µM)
minimum inhibitory concentration ([2]; isolate (source animal id): 92): 16 µg/mL (≈ 21.8 µM)
minimum inhibitory concentration ([2]; isolate (source animal id): 111): 8 µg/mL (≈ 10.9 µM)
minimum inhibitory concentration ([2]; isolate (source animal id): 122): > 16 µg/mL
minimum inhibitory concentration ([2]; isolate (source animal id): 123): 16 µg/mL (≈ 21.8 µM)
minimum inhibitory concentration ([2]; isolate (source animal id): 133): 8 µg/mL (≈ 10.9 µM)
minimum inhibitory concentration ([2]; isolate (source animal id): 158): > 16 µg/mL
minimum inhibitory concentration [2, 3]: > 16 µg/mL
minimum inhibitory concentration [2, 4]: 16 µg/mL (≈ 21.8 µM)
minimum inhibitory concentration [2, 5]: 16 µg/mL (≈ 21.8 µM)
minimum inhibitory concentration [2, 6]: > 16 µg/mL
minimum inhibitory concentration [2, 7]: > 16 µg/mL
minimum inhibitory concentration ([2]; isolate (source animal id): 181): 16 µg/mL (≈ 21.8 µM)
minimum inhibitory concentration [2, 8]: 16 µg/mL (≈ 21.8 µM)
minimum inhibitory concentration ([2]; isolate (source animal id): 183): 8 µg/mL (≈ 10.9 µM)
minimum inhibitory concentration ([2]; isolate (source animal id): 187): 16 µg/mL (≈ 21.8 µM)
minimum inhibitory concentration ([2]; isolate (source animal id): 190): 16 µg/mL (≈ 21.8 µM)
minimum inhibitory concentration ([2]; isolate (source animal id): 194): 16 µg/mL (≈ 21.8 µM)
minimum inhibitory concentration [2, 9]: 16 µg/mL (≈ 21.8 µM)
minimum inhibitory concentration [2, 10]: 16 µg/mL (≈ 21.8 µM)
minimum inhibitory concentration ([2]; isolate (source animal id): 211): 16 µg/mL (≈ 21.8 µM)
minimum inhibitory concentration ([2]; isolate (source animal id): 214): 16 µg/mL (≈ 21.8 µM)
minimum inhibitory concentration ([2]; isolate (source animal id): 222): 16 µg/mL (≈ 21.8 µM)
minimum inhibitory concentration [2, 11]: 8 µg/mL (≈ 10.9 µM)
minimum inhibitory concentration ([2]; isolate (source animal id): 228): > 16 µg/mL
minimum inhibitory concentration ([2]; isolate (source animal id): 230): > 16 µg/mL
minimum inhibitory concentration ([2]; isolate (source animal id): 235): > 16 µg/mL
minimum inhibitory concentration ([2]; isolate (source animal id): 236): 8 µg/mL (≈ 10.9 µM)
minimum inhibitory concentration ([2]; isolate (source animal id): 239): 8 µg/mL (≈ 10.9 µM)
minimum inhibitory concentration [2, 12]: > 16 µg/mL
minimum inhibitory concentration ([2]; isolate (source animal id): 244): 16 µg/mL (≈ 21.8 µM)
minimum inhibitory concentration ([2]; isolate (source animal id): 246): 16 µg/mL (≈ 21.8 µM)
minimum inhibitory concentration [2, 13]: > 16 µg/mL
minimum inhibitory concentration [2, 14]: 16 µg/mL (≈ 21.8 µM)
minimum inhibitory concentration ([2]; isolate (source animal id): 252): > 16 µg/mL
minimum inhibitory concentration ([2]; isolate (source animal id): 268): > 16 µg/mL
minimum inhibitory concentration ([2]; isolate (source animal id): 282): 8 µg/mL (≈ 10.9 µM)
minimum inhibitory concentration [2, 15]: > 16 µg/mL
minimum inhibitory concentration ([2]; isolate (source animal id): 289): 16 µg/mL (≈ 21.8 µM)
minimum inhibitory concentration [2, 16]: 16 µg/mL (≈ 21.8 µM)
minimum inhibitory concentration [2, 17]: 16 µg/mL (≈ 21.8 µM)
minimum inhibitory concentration ([2]; isolate (source animal id): 298): 8 µg/mL (≈ 10.9 µM)
minimum inhibitory concentration ([2]; isolate (source animal id): 301): 8 µg/mL (≈ 10.9 µM)
minimum inhibitory concentration [2, 18]: > 16 µg/mL
minimum inhibitory concentration ([2]; isolate (source animal id): 320): 8 µg/mL (≈ 10.9 µM)
minimum inhibitory concentration ([2]; isolate (source animal id): 331): 8 µg/mL (≈ 10.9 µM)
minimum inhibitory concentration ([2]; isolate (source animal id): 333): 16 µg/mL (≈ 21.8 µM)
minimum inhibitory concentration ([2]; isolate (source animal id): 341): > 16 µg/mL
